What was measured:
Assay type in all cases: cell-based, human
[1] = tested on: T cell lines primed in vitro to Der p I; experiment: secondary proliferation of Der p I-primed T cell lines (Examples V, VII, XI); conditions: for T cell response to selected Der f I peptides / T cell response to Der f I peptides: Der p I primed; for T cell response to selected Der f I peptides: 30 positive experiments, FIG. 15a; for T cell response to Der f I peptides: 14 positive experiments, FIG. 7; for T cell response to selected Der p I peptides: FIG. 13; for positivity index (P.I.): mean S.I. × percent responders, 33 patients
Description: 10^7 PBMC from individual 543 were cultured in 10 ml RPMI-1640 containing 5% pooled human AB serum and supplemented with glutamine, penicillin, streptomycin and HEPES buffer in the presence of 20 μg/ml purified native Der p I/ml at 37° C. for 7 days. Viable cells were then purified by Ficoll-Hypaque centrifugation and cultured for 2 additional weeks in RPMI-1640/5% AB serum containing 5 units recombinant human IL-2/ml and 5 units recombinant human IL-4/ml. The resting T cells were then tested in a secondary proliferation assay to assess T cell responses to various house dust mite proteins and peptides. For assay, 2×10^4 resting T cells were cultured in 200 μl of RPMI-1640/5% AB serum for 3 days at 37° C. in the presence of 2×10^4 autologous Epstein-Barr virus transformed B cells (20,000 Rads) as antigen presenting cells with various concentrations of purified native Der p I or synthetic Der p I peptides. Each well then received 1 μCi tritiated thymidine for 16 hours. The counts incorporated were collected onto glass fiber filters and processed for liquid scintillation counting. Medium alone, acting as negative control, contained no allergen or peptide. The results of this experiment indicate that this particular patient responds with an S.I. of at least 2.0 to several peptides derived from the Der p I protein, including DP I-1, DP I-2, DP I-4, DP I-11, DP I-5, DP I-13, DP I-15, DP I-6.1, DP I-8, DP I-9, DP I-16, DP I-10 and DP I-17 (data not shown).
The above procedure was followed with a number of other house dust mite allergic individuals except a) in individual cases, the length of time of cultivation with IL-2 and IL-4 varied; b) in individual cases, the T cells were primed with either purified native (N) or recombinant (R) Der p I protein at either 20 μg/ml or 10 μg/ml; and c) in individual cases, x-irradiated (3500 Rads) autologous PBMC were used as antigen presenting cells in the secondary proliferation assay.
Individual results were considered positive and used if the individual responded to the Der p I protein and at least one peptide derived from Der p I at an S.I. of 2.0 or greater. The resting T cell lines primed with recombinant or native Der p I-stimulated PBMC were tested for reactivity to synthetic Der p I peptides. The maximum response for each peptide in a titration of the antigen is expressed as the T cell stimulation index (S.I.). The S.I. is the counts-per-minute (CPM) incorporated by cells in response to the peptide divided by the CPM incorporated by cells in medium only. […] However, only individual S.I. values greater than or equal to 2.0 (a response two-fold or greater over background), referred to herein as "positive" results, were used in calculating mean T cell stimulation indices for each peptide for the patient or group of patients tested. […] The T cell stimulation index is calculated by: [formula]
The bar represents the cumulative rank of the peptide response in the group of patients. To determine the cumulative rank, the 5 peptides with the highest S.I. in each individual were determined and assigned a numerical rank in descending order, with 5 representing the strongest response. The ranks for each peptide were then summed in the group of patients to determine the cumulative rank for the peptide. […] Given the percent positive and the mean T cell stimulation index, the positivity index (P.I.) for each peptide can be calculated.
The Der p I and Der f I proteins are very homologous (81% identity). Thus, experiments, similar to those of Example V, were carried out to determine the T cell responses of Der p I primed T cell lines when challenged with various Der p I peptides and substantially matching […].
The results of T cell studies using selected peptides derived from the Der p I, the Der f I, the Der p II and the Der f II proteins are shown in FIGS. 13-18a-d. […]

[2] = tested on: T cell lines primed in vitro to Der f I; experiment: secondary proliferation of Der f I-primed T cell lines (Examples VI, VII, XI); conditions: for T cell reactivity: overlapping Der f I peptides, 16 positive experiments, FIG. 6; for T cell response: patient 783, recombinant Der f I primed, data not shown; for stimulation index, rank in group: 9 patients, FIG. 16a / 16b
Description: Experiments similar to those of Example V were performed to determine. the T cell-reactive areas of the Der f I protein. For example, PBMC from house dust mite-allergic patient 783 were isolated as described in Example V and were stimulated in vitro-- with recombinant purified Der f I at 20 μg/ml. The results of the proliferation assay with Der f I peptides using x-irradiated (3500 Rads) autologous PBMC as antigen presenting cells indicate that T cells from this patient respond to the peptides DF I-8.1, DF I-9, DF I-6, DF I-10, DF I-2.1, DF I-3, DF I-11, DF I-5, DF I-1, and DF I-17 (data not shown).
The above procedure was followed in a number of patients except in individual cases, T cell lines were primed with affinity purified Der f I at 20 μg/ml or at 10 μg/ml and x-irradiated (25,000 Rads) autologous Epstein-Barr virus transformed B cells were used as antigen presenting cells. […]
Similarly, the procedure described in Example VI was followed with T cell lines from 9 patients primed in vitro to the Der f I protein then analyzed for response to selected peptides derived from the protein. The data was analyzed as described in Example VI. […]

[3] = tested on: T cell lines primed in vitro to Der p II; experiment: secondary proliferation of Der p II-primed T cell lines (Examples VIII, X, XI); conditions: for T cell reactivity: overlapping Der p II peptides, FIG. 9
Description: Experiments similar to those of Example V were performed to determine the T cell-reactive areas of the Der p II protein. For example, PBMC from house dust mite-allergic patient 348 were isolated as described in Example V and were stimulated in vitro with 20 μg/ml purified native Der p II.
The above procedure was followed with a number of patients except in individual cases, T cell lines were primed with recombinant Der p II at 20 μg/ml or at 3 μg/ml and x-irradiated (3500 Rads) autologous PBMC were used as antigen-presenting cells. The data was analyzed as described in Example V, except the ranked sum of peptide responses was analyzed assigning a value of 3, 2 or 1 to the three highest S.I. responses.
A study similar to that described in Example VII was carried out to determine the T cell cross-reactivity of the Der p II and Der f II proteins. T cells primed with the Der f II protein were challenged with various Der f II peptides and a set of substantially matching Der p II peptides.
Another experiment following the procedure described in Example VIII analyzed the response of 29 patients primed in vitro to the Der p II protein and challenged with selected peptides derived from the Der p II sequence.

Q: For “DF I-26.1: Der f I peptide (IIGIKDLRAFQHYDGRTIIQHDNGYQ)”, which “T cell response to selected Der f I peptides” value [1] is on record?
A: respond significantly

Q: What does the source list for “DF I-11: Der f I peptide (YRNTSLDLSEQELVDCASQHGC)”?
A: T cell response to Der f I peptides [1]: respond significantly; T cell reactivity [2]: significant areas of T cell reactivity; T cell response [2]: respond

Q: With “DF I-23.1: Der f I peptide (EYIQQNGVVEERSYPYVAREQRCRRPNSQ)” as the substance, how does the “T cell response to selected Der f I peptides” value [1] read?
A: respond significantly

Q: Which “T cell response to selected Der f I peptides” value [1] does the source give for “DF I-21.2: Der f I peptide (RINSVNVPSELDLRSLRTVTPIRMQ)” here?
A: respond significantly

Q: “DP I-22.1: Der p I peptide (AFSGVAATESAYLAHRNQSLDLAEQELVD)” was tested. Which “T cell response to selected Der p I peptides” value ([1]; 33 positive experiments) did it give?
A: respond significantly

Q: What does the source list for “DF I-6: Der f I peptide (YPPDVKQIREALFQTHTAIAVIIG)”?
A: T cell response to Der f I peptides [1]: respond significantly; T cell reactivity [2]: significant areas of T cell reactivity; T cell response [2]: respond

Q: With “DF I-8.1: Der f I peptide (IKDLRAFQHYDGRTIIQHDNGYQPNY)” as the substance, how does the T cell reactivity [2] read?
A: significant areas of T cell reactivity

Q: What about the T cell response [2] of the same substance?
A: respond

Q: What does the source list for “DP II-2: Der p II peptide (HEIKKVLVPGCHGSEPCIIHRGKPF)”?
A: T cell reactivity ([3]; 26 positive experiments): significant T cell reactivity; T cell response ([3]; patient 348, native Der p II primed, data not shown): responds well

Q: Which “T cell response to selected Der f I peptides” value [1] does the source give for “DF I-25.1: Der f I peptide (QIYPPDVKQIREALTQTHTAIAVIIGIKD)” here?
A: respond significantly

Q: What about the “stimulation index, rank in group” value [2] of the same substance?
A: highest stimulation indexes

Q: “DF I-4: Der f I peptide (VAATESAYLAYRNTSLDLSEQ)” was tested. Which “T cell response to Der f I peptides” value [1] did it give?
A: respond significantly

Q: What about the T cell reactivity [2] of the same substance?
A: significant areas of T cell reactivity

Q: What does the source list for “DP I-5: Der p I peptide (GDTIPRGIEYIQHNGVVQESYYRYVARE)”?
A: T cell reactivity ([1]; overlapping Der p I peptides, 33 positive experiments): significant regions of T cell reactivity; T cell response to Der p I peptides ([2]; Der f I primed, 8 positive experiments, FIG. 8): respond significantly

Q: How did the T cell response [2] turn out when “DF I-2.1: Der f I peptide (ELDLRSLRTVTPIRMQGGCGSCWAFSG)” was run?
A: respond

Q: How did the T cell reactivity [2] turn out when “DF I-7: Der f I peptide (TQTHTAIAVIIGIKDLRAFQHYDGRT)” was run?
A: significant areas of T cell reactivity

Q: How did the “T cell response to Der f I peptides” value [1] turn out when “DF I-12: Der f I peptide (ELVDCASQHGCHGDTIPRGIE)” was run?
A: respond significantly

Q: What does the source list for “DP II-3.1: Der p II peptide, native sequence (HGSEPCIIHRGKPFQLEAVFEANQNTKTA)”?
A: difference in mean S.I. or percentage of positive responses, original vs additional (native sequence) peptides ([3]; DP II-3 vs DP II-3.1): no significant difference; T-cell reactivity (DPII-22 series development) ([3]; Der p II T-cell map and analogs): high T-cell reactivity

Q: With “DF I-22.1: Der f I peptide (AFSGVAATESAYLAYRNTSLDLSEQELVD)” as the substance, how does the “stimulation index, rank in group” value [2] read?
A: highest stimulation indexes

Q: Which “T cell response to selected Der f I peptides” value [1] does the source give for “DF I-23.2: Der f I peptide (DTIPRGIEYIQQNGVVEERSYPYVAREQR)” here?
A: respond significantly

Q: For “DF I-15: Der f I peptide (HYGISNYCQIYPPDVKQIREAL)”, which “T cell response to Der f I peptides” value [1] is on record?
A: respond significantly

Q: How did the “ranked sum of peptide responses” value ([3]; 30 patients, FIG. 17b) turn out when “DP II-20.6: Der p II peptide (DQVDVKDSANHEIKKVLVPGSHGSEP)” was run?
A: highest ranked sum

Q: “DF I-17: Der f I peptide (GDSGYGYFQAGNNLMMIEQYPYVVIM)” was tested. Which T cell response [2] did it give?
A: respond

Q: Which “T cell response to selected Der p I peptides” value ([1]; 33 positive experiments) does the source give for “DP I-23.2: Der p I peptide (DTIPRGIEYIQHNGVVQESYYRYVAREQS)” here?
A: respond significantly

Q: And the “positivity index (P.I.)” value [1]?
A: at least 150

Q: For “DF II-18: Der f II peptide (DAKYTWNVPKIAPKSENVVVTVKLVG)”, which “T cell response to Der f II peptides” value ([3]; Der p II primed, 26 positive experiments, FIG. 12) is on record?
A: respond significantly

Q: With “DP II-3: Der p II peptide with a low number of conservative changes from the native sequence (HGSEPCIIHRGKPFQLEAVFEAVQNTKTA)” as the substance, how does the T cell reactivity ([3]; 26 positive experiments) read?
A: significant T cell reactivity

Q: Which “T cell response to selected Der f I peptides” value [1] does the source give for “DF I-27.1: Der f I peptide (HDNGYQPNYHAVNIVGYGSTQGDDY)” here?
A: respond significantly

Q: For “DF I-3: Der f I peptide (TVTPIRMQGGCGSCWAFSGVAATESAYLA)”, which “T cell response to Der f I peptides” value [1] is on record?
A: respond significantly

Q: What about the T cell reactivity [2] of the same substance?
A: significant areas of T cell reactivity

Q: What about the T cell response [2] of the same substance?
A: respond

Q: What does the source list for “DF I-5: Der f I peptide (GDTIPRGIEYIQQNGVVEERSYPYVARE)”?
A: T cell reactivity [2]: significant areas of T cell reactivity; T cell response [2]: respond

Q: “DF I-21.1: Der f I peptide (TSACRINSVNVPSELDLRSLRTVTPIRMQ)” was tested. Which “T cell response to selected Der f I peptides” value [1] did it give?
A: respond significantly

Q: For “DP I-25.2: Der p I peptide (QIYPPNANKIREALAQTHSAIA)”, which “T cell response to selected Der p I peptides” value ([1]; 33 positive experiments) is on record?
A: respond significantly

Q: And the “positivity index (P.I.)” value [1]?
A: at least 150

Q: For “DF I-10: Der f I peptide (QGDDYWIVRNSWDTTWGDSGYGYF)”, which T cell response [2] is on record?
A: respond

Q: For “DF I-14: Der f I peptide (QRCRRPNSQHYGISNYCQI)”, which T cell reactivity [2] is on record?
A: significant areas of T cell reactivity

Q: Which “T cell response to selected Der p I peptides” value ([1]; 33 positive experiments) does the source give for “DP I-28.1: Der p I peptide (NIVGYSNAQGVDYWIVRNSWDTNWGDNGY)” here?
A: respond significantly

Q: “DF I-1: Der f I peptide, amino acid residues 1-20 (TSACRINSVNVPSELDLRSLR)” was tested. Which “T cell response to Der f I peptides” value [1] did it give?
A: respond significantly

Q: What about the T cell reactivity [2] of the same substance?
A: significant areas of T cell reactivity

Q: And the T cell response [2]?
A: respond

Reference: patent US5968526A, “T cell epitopes of the major allergens from Dermatophagoides (house dust mite)” (Immulogic Pharamaceutical Corporation, priority 1995, dated 1999)
